The subject of one data set is Karpas-299 cells. The experiment in a line: Cellular Toxicity Test (1), CellTiter-Glo cell viability. Particulars: Homo sapiens, 96 h, cultured 4 days, cell viability. Format: cell-based, human. The method, then: Karpas-299 cells (European Collection of Authenticated Cell Cultures, hereinafter, ECACC), which are human lymphoma cell lines, were cultured in RPMI 1640 (GIBCO) containing 10% fetal bovine serum (MP Biomedicals) (hereinafter, referred to as the “culture medium”). Cells were prepared to be 2×10^6 cells/mL in the culture medium, and were added to a 96 well microplate for cell culturing in an amount of 50 μL for each well. Compounds of Examples or Comparative Example compound 4 times diluted with the culture medium in 8 stages were added to the microplate in an amount of 50 μL for each well. These were cultured at 37 degree under 5% CO2 for 4 days. After culturing, the microplate was taken out from the incubator, and was left at rest at room temperature for 10 minutes. To each well, 50 μL of CellTiter-Glo Luminescent Cell Viability Assay (Promega) was added, and the resultant mixture was stirred. This mixture was incubated at a dark place for 20 minutes. Using a microplate luminometer, luminescence at each well was measured, thereby calculating the cell viability. In addition, from the value of cell viability, the IC50 value was calculated.
The IC50 value was calculated by the following formula: IC50 (nM)=antilog(LOG10(a/b)×(e−d)/(c−d)+LOG10b) a: concentration a of test substance b: concentration b of test substance c: cell viability upon adding test substance with concentration a d: cell viability upon adding test substance with concentration b e: intermediate value between maximum and minimum among cell viabilities upon adding test substances with different concentrations (a and b are concentrations crossing the cell viability e, and a>b is indicated).
The cell viability at each concentration was calculated by the following formula: Cell Viability (%)=a′/b′×100 a′: mean value of luminescence amount of wells to which test substance was added (n=6) b′: mean value of luminescence amount of wells to which test substance was not added (n=6) (n represents the number of evaluations performed per test substance concentration).

A short description of data set [1]: Membrane Permeability Test, parallel artificial membrane permeability assay (PAMPA). It counts as in vitro ADME. Conditions: pH 7.4, pH7.4, 37° C., read-out: Pe (pH7.4). Here is the method:
By the parallel artificial membrane permeability assay (PAMPA), the membrane permeability of compounds of Examples was examined as follows: To the donor plate, System solution (pION inc.) and GIT Lipid-0 (pION inc.) were added in an amount of 200 μL and 4 μL for each well, respectively. To the acceptor plate, Acceptor Sink Buffer (pION inc.) was added in an amount of 200 μL. Both plates were superposed and incubated at 37° C. for 4 hours, and then, UVs in the solutions on the side of acceptor and on the side of donor were measured with an UV plate reader (190 to 500 nm). Compounds with poor UV absorption were measured by LC-MS. The permeability coefficient Pe (10^−6 cm/sec) of the drug was calculated by the following formula.
[formula] • ra=(VD/VA)Pa^(A-D)/Pa^(D-A)=rVPe^(A-D)/Pa^(D-A) • rV=(VD/VA) • VD=volume of doner well • VA=volume of acceptor well • t=permeation time • τ^SS=steady state time • R=retention • CD=CA=concentration in donor and acceptor well

A value given as a limit tells only on which side of the number the result lay.

As a reminder, the IC50 is the concentration that inhibits the measured activity by half. Lower therefore signals greater potency. In the data set on Karpas-299 cells, `CN[C@H](C(=O)N[C@H](C(=O)N(C)[C@H](/C=C(\C)C(=O)N[C@H](CCC(=O)N[C@@H](CCCCNC(=O)CCN1C(=O)C=CC1=O)C(=O)O)C(=O)O)C(C)C)C(C)(C)C)C(C)(C)c1cn(C)c2ccc(F)cc12` [Example M26] registered an IC50 of 80.1 nM. In data set [1], the Papp at 4 h is below 0.1 ×10⁻⁶ cm/s.
Taken in the same sequence, the figures for `CN[C@H](C(=O)N[C@H](C(=O)N(C)[C@H](/C=C(\C)C(=O)N[C@@H](CC(=O)NCCN1C(=O)C=CC1=O)C(=O)O)C(C)C)C(C)(C)C)C(C)(C)c1cn(C)c2ccccc12` [Example M19] were 169 nM and below 0.1 ×10⁻⁶ cm/s.
The matching figures for `CN[C@H](C(=O)N[C@H](C(=O)N(C)[C@H](/C=C(\C)C(=O)N[C@H](CCC(=O)NCCN1C(=O)C=CC1=O)C(=O)O)C(C)C)C(C)(C)C)C(C)(C)c1cccc(F)c1` [Example M32]: 616 nM and 0.6 ×10⁻⁶ cm/s.
Take `CN[C@H](C(=O)N[C@H](C(=O)N(C)[C@H](/C=C(\C)C(=O)N[C@H](CCC(=O)NCCN1C(=O)C=CC1=O)C(=O)O)C(C)C)C(C)(C)C)C(C)(C)c1cccc(C(F)(F)F)c1` [Example M31]: the IC50 with Karpas-299 cells stood at 197 nM. Further, the Papp at 4 h in data set [1] came out at 1 ×10⁻⁶ cm/s.
Taken in the same sequence, the figures for `CN[C@H](C(=O)N[C@H](C(=O)N(C)[C@H](/C=C(\C)C(=O)N[C@H](CCC(=O)NCCN1C(=O)C=CC1=O)C(=O)O)C(C)C)C(C)(C)C)C(C)(C)c1cccs1` [Example M39] were 379 nM and below 0.1 ×10⁻⁶ cm/s.
Taken in the same sequence, the figures for `CN[C@H](C(=O)N[C@H](C(=O)N(C)[C@H](/C=C(\C)C(=O)N[C@@H](CC(=O)O)C(=O)NCCN1C(=O)C=CC1=O)C(C)C)C(C)(C)C)C(C)(C)c1cn(C)c2ccccc12` [Example M21] were 226 nM and below 0.1 ×10⁻⁶ cm/s.
Taken in the same sequence, the figures for `CNC(C(=O)N[C@H](C(=O)N(C)[C@H](/C=C(\C)C(=O)N[C@H](CCC(=O)NCCN1C(=O)C=CC1=O)C(=O)O)C(C)C)C(C)(C)C)C(C)(C)c1ccc(O)cc1` (some centres unmarked) [Example M34] were 8 nM and 2.7 ×10⁻⁶ cm/s.
Turning to `C/C(=C\[C@H](C(C)C)N(C)C(=O)[C@@H](NC(=O)[C@@H](NC(=O)CCCCCN1C(=O)C=CC1=O)C(C)(C)c1cn(C)c2ccccc12)C(C)(C)C)C(=O)N[C@H](CCC(=O)O)C(=O)O` [Example M48], in the data set on Karpas-299 cells, the IC50 was above 1000 nM. The Papp at 4 h in data set [1] worked out at 0.3 ×10⁻⁶ cm/s.
The matching figures for `CN[C@H](C(=O)N[C@H](C(=O)N(C)[C@H](/C=C(\C)C(=O)N[C@H](CC(=O)NCCN1C(=O)C=CC1=O)C(=O)O)C(C)C)C(C)(C)C)C(C)(C)c1ccccc1` [Example M9]: 576 nM and below 0.1 ×10⁻⁶ cm/s.
For the compound `CN[C@H](C(=O)N[C@H](C(=O)N(C)[C@H](/C=C(\C)C(=O)N[C@H](CC(=O)NCCN1C(=O)C=CC1=O)C(=O)O)C(C)C)C(C)(C)C)C(C)(C)c1cn(C)c2ccccc12` [Example M20], in the data set on Karpas-299 cells, the IC50 is 406 nM. Also, in data set [1], the Papp at 4 h was below 0.1 ×10⁻⁶ cm/s.
Taken in the same sequence, the figures for `CN[C@H](C(=O)N[C@H](C(=O)N(C)[C@H](/C=C(\C)C(=O)N[C@H](CCC(=O)NCCN1C(=O)C=CC1=O)C(=O)O)C(C)C)C(C)(C)C)C(C)(C)c1cccc(C)c1` [Example M42] were 91.1 nM and 4.9 ×10⁻⁶ cm/s.
Taken in the same sequence, the figures for `CNC(C(=O)N[C@H](C(=O)N(C)[C@H](/C=C(\C)C(=O)N[C@H](CCC(=O)O)C(=O)O)C(C)C)C(C)(C)C)C(C)(C)c1ccc(C(=O)NCCN2C(=O)C=CC2=O)cc1` (stereo partly drawn) [Example M47, ((4S,E)-4-((2 S)-2-(3-(4-((2-(2,5-Dioxo-2,5-dihydro-1H-pyrrol-1-yl)ethyl)carbamoyl)phenyl)-3-methyl-2-(methylamino)butanamido)-N,3,3-trimethylbutanamido)-2,5-dimethylhex-2-enoyl)-D-glutamic Acid] were above 1000 nM and 1.2 ×10⁻⁶ cm/s.
Taken in the same sequence, the figures for `CN[C@H](C(=O)N[C@H](C(=O)N(C)[C@H](/C=C(\C)C(=O)N[C@@H](CCCCNC(=O)CCCN1C(=O)C=CC1=O)C(=O)O)C(C)C)C(C)(C)C)C(C)(C)c1cn(C)c2ccccc12` [Example M27] were 192 nM and below 0.1 ×10⁻⁶ cm/s.

(Values after patent publication US11795195B2, “Antibody-drug conjugates including hemiasterlin derivative” (Sumitomo Pharma Co., Ltd., priority 2017, dated 2023).)
